Results published in patent US20020002171A1, “Materials and methods for killing nematodes and nematode eggs” (priority 2000, published 2002).

Tested on: Caenorhabditis elegans
Test: C. elegans L1 nematicidal dose response in 96-well plates, 5 day visual score (Example 2; same procedure for Example 7, Table 3)
Format: in vivo
Set-up: key to 5 Day Visual Score V1 / 5 Day Visual Score V2 / 5 Day Visual Score V3 / 5 Day Visual Score V4 / 5 Day Visual Score V6 / 5 Day Visual Score V5 / Initial HTS Run Visual Score / Follow-up HTS Run Visual Score: Dead: only stiff L1s (no movement); Dead (L4): worms are dead, but at a later larval stage; majority of worms are L1 (based on size) worms move when plate is tapped; majority of worms are L2 (based on size); majority of worms are L3 (based on size); majority of worms are L4 (based on size); AD: majority of worms are adult; #AD: 5 adult worms or less; B!: sterile (0-25 progeny); B: low broodsize (25-100 progeny); ˜B: moderate broodsize (100-250 progeny); <: reduced broodsize (250-500 progeny); OK: no effect (˜1000+ progeny)
Conditions: for 5 Day Visual Score V1 / 5 Day Visual Score V3 / 5 Day Visual Score V4 / 5 Day Visual Score V5 / 5 Day Visual Score V6 / 5 Day Visual Score V2: dose response; for 5 Day Visual Score V1: dilution V1, day 5; for 5 Day Visual Score V3: dilution V3, day 5; for 5 Day Visual Score V4: dilution V4, day 5; for 5 Day Visual Score V5: dilution V5, day 5; for 5 Day Visual Score V6: dilution V6, day 5; for 5 Day Visual Score V2: dilution V2, day 5
Summary of the method: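 Scoring was by eye at 100× on day 5, after incubation at 20° C, of 20 C. elegans L1s per well fed 1% E. coli HB101 in NGM. Compound columns V1–V6 spanned 70 μM to 0.3 μM in 3-fold steps, with 1.4% DMSO in the top well and as control.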

OCCN(CCO)c1nc(NCc2ccc(C(F)(F)F)cc2)ns1 [compound 254]
Follow-up HTS Run % Run: 113%
Follow-up HTS Run Visual Score: L2 - Dead L3
Follow-up HTS Run mOD: 182 mOD
Initial HTS Run % Run: 105%
Initial HTS Run Visual Score: Dead(L3)
Initial HTS Run mOD: 116 mOD
5 Day Visual Score V1: Dead(L3)
5 Day Visual Score V3: < (reduced broodsize (250-500 progeny))
5 Day Visual Score V4: OK (no effect (˜1000+ progeny))
5 Day Visual Score V5: OK (no effect (˜1000+ progeny))
5 Day Visual Score V6: OK (no effect (˜1000+ progeny))

OCCN(Cc1ccccc1)c1nc(NCc2ccc(C(F)(F)F)cc2)ns1 [compound 255]
Follow-up HTS Run % Run: 98%
Follow-up HTS Run Visual Score: L1/L2 - Dead L3
Follow-up HTS Run mOD: 157 mOD
Initial HTS Run % Run: 94%
Initial HTS Run Visual Score: Dead(L3)
Initial HTS Run mOD: 103 mOD
5 Day Visual Score V1: Dead
5 Day Visual Score V2: Dead
5 Day Visual Score V3: OK (no effect (˜1000+ progeny))
5 Day Visual Score V4: OK (no effect (˜1000+ progeny))
5 Day Visual Score V5: OK (no effect (˜1000+ progeny))
5 Day Visual Score V6: OK (no effect (˜1000+ progeny))

CN(CCO)c1nc(NCc2ccc(C(F)(F)F)cc2)ns1 [compound 256]
Follow-up HTS Run % Run: 112%
Follow-up HTS Run Visual Score: L2 - Dead L3
Follow-up HTS Run mOD: 180 mOD
Initial HTS Run % Run: 106%
Initial HTS Run Visual Score: L2 - (Dead L3)
Initial HTS Run mOD: 117 mOD
5 Day Visual Score V1: Dead
5 Day Visual Score V3: OK (no effect (˜1000+ progeny))
5 Day Visual Score V4: OK (no effect (˜1000+ progeny))
5 Day Visual Score V5: OK (no effect (˜1000+ progeny))
5 Day Visual Score V6: OK (no effect (˜1000+ progeny))

COCCN(CCOC)c1nc(NCc2ccc(C(F)(F)F)cc2)ns1 [compound 257]
Follow-up HTS Run % Run: 104%
Follow-up HTS Run Visual Score: L4/AD/B!
Follow-up HTS Run mOD: 168 mOD
Initial HTS Run % Run: 91%
Initial HTS Run Visual Score: L4/AD/B!
Initial HTS Run mOD: 100 mOD
5 Day Visual Score V1: L1
5 Day Visual Score V2: ˜B (moderate broodsize (100-250 progeny))
5 Day Visual Score V3: OK (no effect (˜1000+ progeny))
5 Day Visual Score V4: OK (no effect (˜1000+ progeny))
5 Day Visual Score V5: OK (no effect (˜1000+ progeny))
5 Day Visual Score V6: OK (no effect (˜1000+ progeny))

FC(F)(F)c1cccc(N2CCN(c3nc(NCc4ccccc4C(F)(F)F)ns3)CC2)c1 [compound 258]
Follow-up HTS Run % Run: 124%
Follow-up HTS Run Visual Score: B! (sterile (0-25 progeny))
Follow-up HTS Run mOD: 200 mOD
Initial HTS Run % Run: 111%
Initial HTS Run Visual Score: L4/AD/B!-Few Eggs
Initial HTS Run mOD: 122 mOD
5 Day Visual Score V3: ˜B (moderate broodsize (100-250 progeny))
5 Day Visual Score V4: ˜B (moderate broodsize (100-250 progeny))
5 Day Visual Score V5: OK (no effect (˜1000+ progeny))
5 Day Visual Score V6: OK (no effect (˜1000+ progeny))

CCCN(CC1CC1)c1nc(NCc2ccccc2C(F)(F)F)ns1 [compound 260]
Follow-up HTS Run % Run: 147%
Follow-up HTS Run Visual Score: L2
Follow-up HTS Run mOD: 236 mOD
Initial HTS Run % Run: 122%
Initial HTS Run Visual Score: L2 (Dead L3)
Initial HTS Run mOD: 134 mOD
5 Day Visual Score V1: L1
5 Day Visual Score V2: B (low broodsize (25-100 progeny))
5 Day Visual Score V3: OK (no effect (˜1000+ progeny))
5 Day Visual Score V4: OK (no effect (˜1000+ progeny))
5 Day Visual Score V5: OK (no effect (˜1000+ progeny))
5 Day Visual Score V6: OK (no effect (˜1000+ progeny))

CC1CCN(c2nc(NCc3ccccc3)ns2)CC1 [compound 261]
Follow-up HTS Run % Run: 96%
Follow-up HTS Run mOD: 155 mOD
Initial HTS Run % Run: 96%
Initial HTS Run Visual Score: L3/L4/AD/B!
Initial HTS Run mOD: 106 mOD
5 Day Visual Score V1: Dead
5 Day Visual Score V3: OK (no effect (˜1000+ progeny))
5 Day Visual Score V4: OK (no effect (˜1000+ progeny))
5 Day Visual Score V5: OK (no effect (˜1000+ progeny))
5 Day Visual Score V6: OK (no effect (˜1000+ progeny))

OC1CCN(c2nc(NCc3ccccc3)ns2)CC1 [compound 262]
Follow-up HTS Run % Run: 106%
Follow-up HTS Run mOD: 171 mOD
Initial HTS Run % Run: 110%
Initial HTS Run Visual Score: L3/L4/AD/B!
Initial HTS Run mOD: 121 mOD
5 Day Visual Score V1: L4/#AD/B!
5 Day Visual Score V2: < (reduced broodsize (250-500 progeny))
5 Day Visual Score V3: OK (no effect (˜1000+ progeny))
5 Day Visual Score V4: OK (no effect (˜1000+ progeny))
5 Day Visual Score V5: OK (no effect (˜1000+ progeny))
5 Day Visual Score V6: OK (no effect (˜1000+ progeny))

OCC1CCCN(c2nc(NCc3ccccc3)ns2)C1 (stereo not drawn) [compound 263]
Follow-up HTS Run % Run: 104%
Follow-up HTS Run mOD: 167 mOD
Initial HTS Run % Run: 110%
Initial HTS Run mOD: 121 mOD
5 Day Visual Score V2: ˜B (moderate broodsize (100-250 progeny))
5 Day Visual Score V3: OK (no effect (˜1000+ progeny))
5 Day Visual Score V4: OK (no effect (˜1000+ progeny))
5 Day Visual Score V5: OK (no effect (˜1000+ progeny))
5 Day Visual Score V6: OK (no effect (˜1000+ progeny))

CC1CC(C)CN(c2nc(NCc3ccccc3)ns2)C1 (stereo not drawn) [compound 264]
Follow-up HTS Run % Run: 110%
Follow-up HTS Run Visual Score: L4/AD/B
Follow-up HTS Run mOD: 177 mOD
Initial HTS Run % Run: 104%
Initial HTS Run Visual Score: L4/AD/B
Initial HTS Run mOD: 114 mOD
5 Day Visual Score V1: L2
5 Day Visual Score V3: < (reduced broodsize (250-500 progeny))
5 Day Visual Score V4: OK (no effect (˜1000+ progeny))
5 Day Visual Score V5: OK (no effect (˜1000+ progeny))
5 Day Visual Score V6: OK (no effect (˜1000+ progeny))

CCN(CC)C(=O)C1CCCN(c2nc(NCc3ccccc3)ns2)C1 (stereo not drawn) [compound 265]
Follow-up HTS Run % Run: 111%
Follow-up HTS Run mOD: 178 mOD
Initial HTS Run % Run: 108%
Initial HTS Run mOD: 119 mOD
5 Day Visual Score V2: OK (no effect (˜1000+ progeny))
5 Day Visual Score V3: OK (no effect (˜1000+ progeny))
5 Day Visual Score V4: OK (no effect (˜1000+ progeny))
5 Day Visual Score V5: OK (no effect (˜1000+ progeny))
5 Day Visual Score V6: OK (no effect (˜1000+ progeny))

FC(F)(F)c1cccc(N2CCN(c3nc(NCc4ccccc4)ns3)CC2)c1 [compound 266]
Follow-up HTS Run % Run: 124%
Follow-up HTS Run mOD: 200 mOD
Initial HTS Run % Run: 110%
Initial HTS Run mOD: 121 mOD
5 Day Visual Score V1: Dead
5 Day Visual Score V4: OK (no effect (˜1000+ progeny))
5 Day Visual Score V5: OK (no effect (˜1000+ progeny))
5 Day Visual Score V6: OK (no effect (˜1000+ progeny))

CCOc1cc(CCNc2nsc(N3CCN(c4ccc(F)cc4)CC3)n2)ccc1OC [compound 267]
Follow-up HTS Run % Run: 99%
Follow-up HTS Run Visual Score: Dead
Follow-up HTS Run mOD: 160 mOD
Initial HTS Run % Run: 94%
Initial HTS Run Visual Score: Dead
Initial HTS Run mOD: 103 mOD
5 Day Visual Score V1: Dead
5 Day Visual Score V2: L1
5 Day Visual Score V3: < (reduced broodsize (250-500 progeny))
5 Day Visual Score V4: OK (no effect (˜1000+ progeny))
5 Day Visual Score V5: OK (no effect (˜1000+ progeny))
5 Day Visual Score V6: OK (no effect (˜1000+ progeny))
